Measurements reported in article PMC10745768, “Stereoselective Synthesis and Antiproliferative Activity of Steviol-Based Diterpene 1,3-Aminoalcohol Regioisomers” (Molecules, 2023).

What was measured:
A2780 cells = assay: MTT antiproliferative assay, A2780; assay type: cell-based; conditions: Homo sapiens, 72 h, read-out: Growth inhibition (%) ± SEM; for inhibition at 10 µM: A2780, 10 μM; for inhibition at 30 µM: A2780, 30 μM
Experimental: (§1) The in vitro anticancer effects of the presented compounds were assessed using the standard MTT [3-(4,5-dimethylthiazol2-yl)-2,5-diphenyltetrazolium bromide] assay on the following human cancer cell lines: cervical (HeLa and SiHa), breast (MCF-7 and MDA-MB-231) and ovarian cancer (A2780). The selectivity of the tested compounds was determined on murine embryonal fibroblast cells (NIH/3T3). The utilised cell lines were purchased from the European Collection of Cell Cultures (Salisbury, UK). The cells were cultivated in Eagle’s minimal essential medium supplemented with 10% fetal bovine serum, 1% non-essential amino acids and 1% antibiotic-antimycotic complex (penicillin, streptomycin, amphotericin B) at 37 °C in a humidified atmosphere containing 5% CO2. All media and supplements were purchased from Lonza Group Ltd. (Basel, Switzerland). The cancer cells were seeded into 96-well plates (5000 cells/well) and incubated overnight, and the test compounds were applied in two different concentrations (10 µM and 30 µM) and incubated for another 72 h under cell-culturing conditions. […] After 72 h, 20 µL of the 5 mg/mL MTT solution was added to each well, and the plates were incubated for 4 h. The medium was removed, and the formazan crystals produced by the mitochondrial activity were dissolved in dimethyl sulfoxide (DMSO) via shaking at 37 °C for 30 min. The absorbances were measured at 545 nm using a microplate reader (SPECTROStar Nano, BMG Labtech, Offenburg, Germany). The reference agent was cisplatin, which is a widely used cytotoxic agent. The IC50 values were calculated using sigmoid curve fitting. Two independent experiments were performed with five parallel wells for each condition. Calculations were performed using the GraphPad Prism 9 software (GraphPad Software Inc., San Diego, CA, USA).

NIH/3T3 fibroblast cells = assay: MTT assay on non-malignant fibroblasts (selectivity); assay type: cell-based, murine; conditions: Mus musculus, NIH3T3, 72 h, read-out: Growth inhibition (%) ± SEM; for inhibition at 10 µM: NIH/3T3, 10 μM; for inhibition at 30 µM: NIH/3T3, 30 μM
Experimental: as §1

HeLa cells = assay: MTT antiproliferative assay, HeLa; assay type: cell-based; conditions: Homo sapiens, 72 h, read-out: Growth inhibition (%) ± SEM
Experimental: as §1

MDA-MB-231 cells = assay: MTT antiproliferative assay, MDA-MB-231; assay type: cell-based; conditions: Homo sapiens, 72 h, read-out: Growth inhibition (%) ± SEM; for inhibition at 10 µM: MDA-MB-231, 10 μM; for inhibition at 30 µM: MDA-MB-231, 30 μM
Experimental: as §1

SiHa cells = assay: MTT antiproliferative assay, SiHa; assay type: cell-based; conditions: Homo sapiens, 72 h, read-out: Growth inhibition (%) ± SEM
Experimental: as §1

MCF-7 cells = assay: MTT antiproliferative assay, MCF-7; assay type: cell-based; conditions: Homo sapiens, MCF7, 72 h, read-out: Growth inhibition (%) ± SEM; for inhibition at 10 µM: MCF-7, 10 μM; for inhibition at 30 µM: MCF-7, 30 μM
Experimental: as §1

| Compound | inhibition at 10 µM (A2780 cells) [%] | inhibition at 30 µM (A2780 cells) [%] | inhibition at 10 µM (NIH/3T3 fibroblast cells) [%] | inhibition at 30 µM (NIH/3T3 fibroblast cells) [%] | inhibition at 10 µM (HeLa cells) [%] | inhibition at 30 µM (HeLa cells) [%] | inhibition at 10 µM (MDA-MB-231 cells) [%] | inhibition at 30 µM (MDA-MB-231 cells) [%] | inhibition at 10 µM (SiHa cells) [%] | inhibition at 30 µM (SiHa cells) [%] | inhibition at 10 µM (MCF-7 cells) [%] | inhibition at 30 µM (MCF-7 cells) [%] |
| --- | --- | --- | --- | --- | --- | --- | --- | --- | --- | --- | --- | --- |
| COC(=O)[C@]1(C)CCC[C@@]2(C)[C@@H]3CC[C@@]4(CN[C@@H](C)c5cccc6ccccc56)C[C@]3(CC[C@@H]21)C[C@H]4O [Compound 27, (4R,4aS,6aR,8R,9S,11aR,11bS)-Methyl 8-hydroxy-4,11b-dimethyl-9-((((S)-1-(naphthalen-1-yl)ethyl)amino)methyl)tetradecahydro-6a,9-methanocyclohepta[a]naphthalene-4-carboxylate] | 59 ± 1.68 | 98.92 ± 0.22 | < 20 | 94 ± 1.64 | < 20 | 96.38 ± 0.83 | 67.2 ± 1.94 | 93.69 ± 0.42 | < 20 | 86.9 ± 2.27 | 79.6 ± 2.89 | 97.63 ± 0.31 |
| COC(=O)[C@]1(C)CCC[C@@]2(C)[C@@H]3CC[C@@]4(CO)C[C@]3(CC[C@@H]21)C[C@H]4NCc1cccc2ccccc12 [Compound 15, (4R,4aS,6aR,8R,9R,11aR,11bS)-Methyl 9-(hydroxymethyl)-4,11b-dimethyl-8-((naphthalen-1-ylmethyl)amino)tetradecahydro-6a,9-methanocyclohepta[a]naphthalene-4-carboxylate] | 89.5 ± 1.76 | 99.67 ± 0.49 | < 20 | 96.5 ± 0.77 | < 20 | 94.9 ± 2.04 | 31.3 ± 1.89 | 94.2 ± 0.98 | < 20 | 87.9 ± 1.33 | 54 ± 3.39 | 97.43 ± 0.59 |
| COC(=O)[C@]1(C)CCC[C@@]2(C)[C@@H]3CC[C@@]4(CO)C[C@]3(CC[C@@H]21)C[C@H]4NCc1ccccc1 [Compound 8, (4R,4aS,6aR,8R,9R,11aR,11bS)-Methyl 8-(benzylamino)-9-(hydroxymethyl)-4,11b-dimethyltetradecahydro-6a,9-methanocyclohepta[a]naphthalene-4-carboxylate] | 20.3 ± 2.05 | 98.25 ± 0.4 | 25.7 ± 0.97 | 98.27 ± 0.37 | < 20 | 97.49 ± 0.52 | < 20 | 97.89 ± 0.66 | < 20 | 95.3 ± 1.23 | 45.4 ± 1.94 | 98.9 ± 0.18 |
| COC(=O)[C@]1(C)CCC[C@@]2(C)[C@@H]3CC[C@@]4(CO)C[C@]3(CC[C@@H]21)C[C@H]4NCc1ccc(OC)cc1 [Compound 10, (4R,4aS,6aR,8R,9R,11aR,11bS)-Methyl 9-(hydroxymethyl)-8-((4-methoxybenzyl)amino)-4,11b-dimethyltetradecahydro-6a,9-methanocyclohepta[a]naphthalene-4-carboxylate] | 39 ± 1.87 | 98.38 ± 0.51 | 20.3 ± 2.93 | 96.6 ± 1.1 | – | 97.65 ± 0.64 | 78.7 ± 2.63 | 98.09 ± 0.59 | < 20 | 97.61 ± 0.9 | 86.5 ± 0.88 | 100 ± 0.2 |
| COC(=O)[C@]1(C)CCC[C@@]2(C)[C@@H]3CC[C@@]4(CNCc5cccc6ccccc56)C[C@]3(CC[C@@H]21)C[C@H]4O [Compound 26, (4R,4aS,6aR,8R,9S,11aR,11bS)-Methyl 8-hydroxy-4,11b-dimethyl-9-(((naphthalen-1-ylmethyl)amino)methyl)tetradecahydro-6a,9-methanocyclohepta[a]naphthalene-4-carboxylate] | 61.4 ± 1.45 | 98.21 ± 0.43 | 25.7 ± 1.93 | 95.6 ± 0.96 | 49.5 ± 1.23 | 93.6 ± 1.56 | 87.61 ± 0.59 | 93.1 ± 1.53 | 63.4 ± 0.91 | 86.9 ± 1.69 | 90.7 ± 1.57 | 97.49 ± 0.53 |
| COC(=O)[C@]1(C)CCC[C@@]2(C)[C@@H]3CC[C@@]4(CN[C@H](C)c5ccc6ccccc6c5)C[C@]3(CC[C@@H]21)C[C@H]4O [Compound 29, (4R,4aS,6aR,8R,9S,11aR,11bS)-Methyl 8-hydroxy-4,11b-dimethyl-9-((((R)-1-(naphthalen-2-yl)ethyl)amino)methyl)tetradecahydro-6a,9-methanocyclohepta[a]naphthalene-4-carboxylate] | 21.9 ± 0.73 | 75 ± 1.79 | < 20 | 32 ± 1.3 | < 20 | 92.17 ± 0.38 | < 20 | 95.3 ± 0.97 | < 20 | 79.5 ± 2.33 | 32.5 ± 0.92 | 93.08 ± 0.3 |
| COC(=O)[C@]1(C)CCC[C@@]2(C)[C@@H]3CC[C@@]4(CN[C@H](C)c5cccc6ccccc56)C[C@]3(CC[C@@H]21)C[C@H]4O [Compound 28, (4R,4aS,6aR,8R,9S,11aR,11bS)-Methyl 8-hydroxy-4,11b-dimethyl-9-((((R)-1-(naphthalen-1-yl)ethyl)amino)methyl)tetradecahydro-6a,9-methanocyclohepta[a]naphthalene-4-carboxylate] | 60.1 ± 2.24 | 98.53 ± 0.42 | < 20 | 94 ± 1.95 | 46.8 ± 1.44 | 94.66 ± 0.63 | 88 ± 0.54 | 92.9 ± 1.04 | 63.4 ± 2.66 | 86.1 ± 3.79 | 90.63 ± 0.54 | 97.75 ± 0.39 |
| CC[C@H](NC[C@@]12CC[C@@H]3[C@@](CC[C@H]4[C@@]3(C)CCC[C@@]4(C)C(=O)OC)(C[C@H]1O)C2)c1ccccc1 [Compound 25, (4R,4aS,6aR,8R,9S,11aR,11bS)-Methyl 8-hydroxy-4,11b-dimethyl-9-((((S)-1-phenylpropyl)amino)methyl)tetradecahydro-6a,9-methanocyclohepta[a]naphthalene-4-carboxylate] | < 20 | 73.83 ± 0.57 | < 20 | 93.7 ± 1.11 | < 20 | 32.2 ± 2.88 | < 20 | 69.3 ± 1.96 | < 20 | < 20 | 40.1 ± 1.44 | 78.8 ± 1.52 |
| CC[C@@H](NC[C@@]12CC[C@@H]3[C@@](CC[C@H]4[C@@]3(C)CCC[C@@]4(C)C(=O)OC)(C[C@H]1O)C2)c1ccccc1 [Compound 24, (4R,4aS,6aR,8R,9S,11aR,11bS)-Methyl 8-hydroxy-4,11b-dimethyl-9-((((R)-1-phenylpropyl)amino)methyl)tetradecahydro-6a,9-methanocyclohepta[a]naphthalene-4-carboxylate] | < 20 | 99.28 ± 0.52 | 21.8 ± 2.15 | 97.69 ± 0.87 | < 20 | 96.56 ± 0.88 | < 20 | 97.6 ± 1.01 | < 20 | 78.1 ± 1.56 | 34.8 ± 1.99 | 93.6 ± 0.94 |
| COC(=O)[C@]1(C)CCC[C@@]2(C)[C@@H]3CC[C@@]4(CO)C[C@]3(CC[C@@H]21)C[C@H]4NCc1ccc(F)cc1 [Compound 9, (4R,4aS,6aR,8R,9R,11aR,11bS)-Methyl 8-((4-fluorobenzyl)amino)-9-(hydroxymethyl)-4,11b-dimethyltetradecahydro-6a,9-methanocyclohepta[a]naphthalene-4-carboxylate] | 73.6 ± 2.61 | 99.01 ± 0.11 | < 20 | 93.9 ± 1.94 | < 20 | 95.35 ± 0.58 | 58 ± 2.59 | 93.42 ± 0.39 | < 20 | 86 ± 2.92 | 79.8 ± 1.59 | 98.07 ± 0.35 |
